Results as given in patent US8471005B2 (Cephalon, Inc., priority 2008, dated 2013).
Read-outs that look alike come from different tables or passages of the source.

Experiments:
ALK = target: T1, ALK (Homo sapiens, UniProt Q9UM73); test: ALK Kinase Assay (ELISA/TRF, PLC-γ substrate); format: biochemical; settings: read-out: ALK Potency
T1 construct: host or cells: baculovirus expression system
Procedure, shortened: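 Read-out is time-resolved fluorescence from a Eu-N1-labeled PT66 antibody that binds phosphorylated PLC-γ, the substrate coated at 10 μg/mL in TBS. ALK at 30 ng/ml starts the reaction, which runs 15 minutes at 37° C.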

JAK2 = target: T2, JAK2 (Homo sapiens, UniProt O60674); test: Recombinant Human JAK2 Kinase Assay (TRF); format: biochemical; settings: read-out: JAK2 Potency
T2 construct: host or cells: baculovirus expression system
Procedure, shortened: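 TRF read-out: Eu-N1 PY100 anti-phosphotyrosine antibody detects product. Enzyme is baculovirus-expressed JAK2 at 15 ng/ml; substrate is a biotinyl 15-mer peptide bound to Neutravidin-coated wells. Buffer 20 mM HEPES pH 7.2, 0.2 μM ATP, 1 mM MnCl2, 0.1% BSA, 2.5% DMSO final; 20 min, RT.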

[1] = ALK kinase inhibition, 1 μM ATP
[2] = JAK2 kinase inhibition, 0.2 μM ATP

T1 sequence (Q9UM73 19-1620): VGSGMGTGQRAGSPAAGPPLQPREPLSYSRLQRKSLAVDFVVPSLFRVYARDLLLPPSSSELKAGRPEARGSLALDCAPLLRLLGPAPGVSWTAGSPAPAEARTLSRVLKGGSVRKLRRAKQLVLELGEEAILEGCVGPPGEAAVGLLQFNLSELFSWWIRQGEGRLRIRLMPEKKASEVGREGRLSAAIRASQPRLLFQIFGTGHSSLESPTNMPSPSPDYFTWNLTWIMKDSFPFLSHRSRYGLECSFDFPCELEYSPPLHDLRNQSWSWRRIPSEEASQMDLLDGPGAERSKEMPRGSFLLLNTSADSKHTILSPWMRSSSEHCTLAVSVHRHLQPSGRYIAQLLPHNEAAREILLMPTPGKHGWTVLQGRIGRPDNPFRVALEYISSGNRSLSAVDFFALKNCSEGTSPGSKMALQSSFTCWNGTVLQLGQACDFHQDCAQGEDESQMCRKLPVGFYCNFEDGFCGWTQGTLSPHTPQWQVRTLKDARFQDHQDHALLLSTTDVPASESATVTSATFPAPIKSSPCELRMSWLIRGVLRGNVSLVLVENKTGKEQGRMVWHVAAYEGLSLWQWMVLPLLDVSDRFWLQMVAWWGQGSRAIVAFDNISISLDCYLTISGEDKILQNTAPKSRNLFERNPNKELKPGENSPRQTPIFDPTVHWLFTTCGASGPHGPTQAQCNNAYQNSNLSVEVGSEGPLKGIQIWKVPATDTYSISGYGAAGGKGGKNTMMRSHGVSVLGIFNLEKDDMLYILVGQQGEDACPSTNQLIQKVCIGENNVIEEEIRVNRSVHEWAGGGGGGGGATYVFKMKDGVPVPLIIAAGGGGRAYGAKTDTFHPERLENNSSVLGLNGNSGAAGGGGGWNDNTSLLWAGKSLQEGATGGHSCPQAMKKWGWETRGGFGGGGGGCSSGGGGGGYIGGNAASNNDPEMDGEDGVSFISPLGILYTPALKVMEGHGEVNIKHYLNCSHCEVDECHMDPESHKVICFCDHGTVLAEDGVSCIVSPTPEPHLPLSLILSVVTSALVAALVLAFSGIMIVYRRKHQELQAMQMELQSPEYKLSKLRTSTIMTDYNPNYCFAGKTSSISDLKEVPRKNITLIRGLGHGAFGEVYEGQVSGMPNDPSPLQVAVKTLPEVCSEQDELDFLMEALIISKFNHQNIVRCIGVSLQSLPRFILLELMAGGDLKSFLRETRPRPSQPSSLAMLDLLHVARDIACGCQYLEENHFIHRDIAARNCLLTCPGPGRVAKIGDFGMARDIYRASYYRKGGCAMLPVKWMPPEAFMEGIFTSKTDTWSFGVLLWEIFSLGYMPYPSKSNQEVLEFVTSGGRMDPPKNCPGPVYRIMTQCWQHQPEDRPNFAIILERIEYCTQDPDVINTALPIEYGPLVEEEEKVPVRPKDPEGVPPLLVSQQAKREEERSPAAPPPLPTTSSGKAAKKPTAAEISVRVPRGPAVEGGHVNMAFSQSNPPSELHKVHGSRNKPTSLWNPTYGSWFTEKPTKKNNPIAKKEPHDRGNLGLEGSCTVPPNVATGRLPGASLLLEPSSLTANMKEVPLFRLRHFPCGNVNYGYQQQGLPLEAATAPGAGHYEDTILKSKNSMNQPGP
T2 sequence (O60674 whole entry): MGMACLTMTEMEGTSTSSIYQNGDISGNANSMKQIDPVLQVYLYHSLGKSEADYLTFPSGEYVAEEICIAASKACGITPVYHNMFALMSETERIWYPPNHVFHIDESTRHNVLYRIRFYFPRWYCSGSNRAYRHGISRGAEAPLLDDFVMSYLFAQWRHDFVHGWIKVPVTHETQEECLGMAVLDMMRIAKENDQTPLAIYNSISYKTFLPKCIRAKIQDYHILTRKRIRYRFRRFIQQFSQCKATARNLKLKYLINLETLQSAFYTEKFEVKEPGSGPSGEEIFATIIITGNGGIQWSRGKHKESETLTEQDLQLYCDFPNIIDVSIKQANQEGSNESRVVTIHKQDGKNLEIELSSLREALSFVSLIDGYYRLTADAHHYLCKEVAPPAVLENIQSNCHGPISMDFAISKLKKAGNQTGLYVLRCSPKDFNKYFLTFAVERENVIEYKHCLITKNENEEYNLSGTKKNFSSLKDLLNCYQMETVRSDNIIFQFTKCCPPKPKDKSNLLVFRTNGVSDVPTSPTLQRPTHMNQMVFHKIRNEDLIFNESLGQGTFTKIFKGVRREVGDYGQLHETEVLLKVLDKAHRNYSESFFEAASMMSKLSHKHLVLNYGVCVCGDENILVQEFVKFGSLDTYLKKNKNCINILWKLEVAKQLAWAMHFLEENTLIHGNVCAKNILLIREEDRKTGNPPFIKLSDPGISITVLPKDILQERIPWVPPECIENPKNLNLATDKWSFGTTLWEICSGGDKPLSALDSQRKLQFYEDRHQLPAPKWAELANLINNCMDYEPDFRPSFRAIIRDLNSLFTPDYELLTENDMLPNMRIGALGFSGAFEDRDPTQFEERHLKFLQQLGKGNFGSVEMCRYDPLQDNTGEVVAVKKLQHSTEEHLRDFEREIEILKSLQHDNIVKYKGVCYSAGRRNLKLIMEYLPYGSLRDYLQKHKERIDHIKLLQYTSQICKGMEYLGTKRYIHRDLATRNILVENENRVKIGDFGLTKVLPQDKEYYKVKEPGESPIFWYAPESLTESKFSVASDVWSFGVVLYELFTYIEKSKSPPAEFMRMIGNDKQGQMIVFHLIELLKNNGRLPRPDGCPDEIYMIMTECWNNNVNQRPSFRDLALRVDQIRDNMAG

What does the source list for `CS(=O)(=O)CCNCc1cccc(-c2ccc3cnc(Nc4ccc(N5CCOCC5)cc4)nn23)c1` [Example 1209, (7-{3-[(2-Methanesulfonyl-ethylamino)-methyl]-phenyl}-pyrrolo[2,1-f][1,2,4]triazin-2-yl)-(4-morpholin-4-yl-phenyl)-amine]?
IC50 (ALK; [1]): 0.1 to 1 µM; IC50 (JAK2; [2]): < 0.1 µM

Which results are given for `NC(=O)CN1CCC(c2ccc(Nc3ncc4ccc(-c5ncccn5)n4n3)cc2)CC1` [Example 1568, 2-{4-[4-(7-Pyrimidin-2-yl-pyrrolo[2,1-f][1,2,4]triazin-2-ylamino)-phenyl]-piperidin-1-yl}-acetamide]?
IC50 (ALK; ALK Kinase Inhibition): 1 to 10 µM; IC50 (JAK2; JAK2 Kinase Inhibition): < 0.1 µM

What does the source list for `O=S(=O)(c1cccc(-c2ccc3cnc(Nc4ccc(N5CCOCC5)cc4)nn23)c1)N1CCCC1` [Example 358, (4-Morpholin-4-yl-phenyl)-{7-[3-(pyrrolidine-1-sulfonyl)-phenyl]-pyrrolo[2,1-f][1,2,4]triazin-2-yl}-amine]?
IC50 (ALK; ALK Kinase Inhibition): 0.1 to 1 µM; IC50 (JAK2; JAK2 Kinase Inhibition): < 0.1 µM

`COc1cc([C@@H]2CCNC[C@@H]2O)ccc1Nc1ncc2ccc(-c3ccccc3N(C)S(C)(=O)=O)n2n1` (racemic) [Example 841, (±)-N-(2-{2-[4-((3R,4S)-3-Hydroxy-piperidin-4-yl)-2-methoxy-phenylamino]-pyrrolo[2,1-f][1,2,4]triazin-7-yl}-phenyl)-N-methyl-methanesulfonamide] was tested. Which IC50 (ALK; [1]) did it give?
The IC50 was < 0.1 µM.

And the IC50 (JAK2; [2])?
The IC50 was 1 to 10 µM.

How did the IC50 (ALK; [1]) turn out when `CC(C)(C)NS(=O)(=O)c1cccc(-c2ccc3cnc(Nc4ccc(C5CCC(O)CC5)cc4)nn23)c1` (centres unmarked) [Example 568, N-tert-Butyl-3-{2-[4-(4-hydroxy-cyclohexyl)-phenylamino]-pyrrolo[2,1-f][1,2,4]triazin-7-yl}-benzenesulfonamide] was run?
The IC50 was 0.1 to 1 µM.

And the IC50 (JAK2; [2])?
Its IC50 is < 0.1 µM.

How did the IC50 (ALK; [1]) turn out when `COc1cc(C2CCN(CC(N)=O)CC2)ccc1Nc1ncc2c(C)cc(-c3ccccc3N(C)S(C)(=O)=O)n2n1` [Example 1255, 2-[4-(4-{7-[2-(Methanesulfonyl-methyl-amino)-phenyl]-5-methyl-pyrrolo[2,1-f][1,2,4]triazin-2-ylamino}-3-methoxy-phenyl)-piperidin-1-yl]-acetamide] was run?
The IC50 was < 0.1 µM.

What about the IC50 (JAK2; [2]) of the same compound?
Its IC50 is 0.1 to 1 µM.

Which IC50 (ALK; ALK Kinase Inhibition) does the source give for `COc1cccnc1-c1ccc2cnc(Nc3ccc(C4CCN(CC(N)=O)CC4)cc3)nn12` [Example 1531, 2-(4-{4-[7-(3-Methoxy-pyridin-2-yl)-pyrrolo[2,1-f][1,2,4]triazin-2-ylamino]-phenyl}-piperidin-1-yl)-acetamide] here?
Its IC50 is 1 to 10 µM.

What about the IC50 (JAK2; JAK2 Kinase Inhibition) of the same compound?
The IC50 was < 0.1 µM.

With `COc1cc([C@@H]2CCN(CCF)C[C@@H]2O)ccc1Nc1ncc2ccc(-c3ccccc3N(C)S(C)(=O)=O)n2n1` (racemic) [Example 843, (±)-N-[2-(2-{4-[(3R,4S)-1-(2-Fluoro-ethyl)-3-hydroxy-piperidin-4-yl]-2-methoxy-phenylamino}-pyrrolo[2,1-f][1,2,4]triazin-7-yl)-phenyl]-N-methyl-methanesulfonamide] as the compound, how does the IC50 (ALK; [1]) read?
Its IC50 is < 0.1 µM.

And the IC50 (JAK2; [2])?
Its IC50 is 0.1 to 1 µM.

Which results are given for `COc1cc(C2CCN(CC3CCN3C)CC2)ccc1Nc1ncc2ccc(-c3ccccc3N(C)S(C)(=O)=O)n2n1` (racemic) [Example 871, (±)-N-[2-(2-{2-Methoxy-4-[1-(1-methyl-azetidin-2-ylmethyl)-piperidin-4-yl]-phenylamino}-pyrrolo[2,1-f][1,2,4]triazin-7-yl)-phenyl]-N-methyl-methanesulfonamide]?
IC50 (ALK; [1]): < 0.1 µM; IC50 (JAK2; [2]): 1 to 10 µM

Which IC50 (ALK; [1]) does the source give for `COc1c(Nc2ncc3ccc(-c4ccccc4N(C)S(C)(=O)=O)n3n2)cccc1C(=O)N1CCN(C)CC1` [Example 1230, N-(2-{2-[2-Methoxy-3-(4-methyl-piperazine-1-carbonyl)-phenylamino]-pyrrolo[2,1-f][1,2,4]triazin-7-yl}-phenyl)-N-methyl-methanesulfonamide] here?
The IC50 was 0.1 to 1 µM.

What about the IC50 (JAK2; [2]) of the same compound?
Its IC50 is > 10 µM.

With `CC(C)(C)NS(=O)(=O)c1cccc(-c2ccc3cnc(Nc4ccc(C5(C#N)CCN(CC(N)=O)CC5)cc4)nn23)c1` [Example 1544, 2-(4-{4-[7-(3-tert-Butylsulfamoyl-phenyl)-pyrrolo[2,1-f][1,2,4]triazin-2-ylamino]-phenyl}-4-cyano-piperidin-1-yl)-acetamide] as the compound, how does the IC50 (ALK; ALK Kinase Inhibition) read?
The IC50 was 0.1 to 1 µM.

What about the IC50 (JAK2; JAK2 Kinase Inhibition) of the same compound?
The IC50 was < 0.1 µM.

Which results are given for `COc1ccccc1-c1ccc2cnc(Nc3ccc4c(c3)N(C)CCO4)nn12` [Example 645, [7-(2-Methoxy-phenyl)-pyrrolo[2,1-f][1,2,4]triazin-2-yl]-(4-methyl-3,4-dihydro-2H-benzo[1,4]oxazin-6-yl)-amine]?
IC50 (ALK; [1]): 0.1 to 1 µM; IC50 (JAK2; [2]): < 0.1 µM

Which results are given for `CC(C)(C)NS(=O)(=O)c1cccc(-c2ccc3cnc(Nc4ccc5nc(C(F)(F)F)[nH]c5c4)nn23)c1` [Example 1297, N-tert-Butyl-3-[2-(2-trifluoromethyl-3H-benzimidazol-5-ylamino)-pyrrolo[2,1-f][1,2,4]triazin-7-yl]-benzenesulfonamide]?
IC50 (ALK; [1]): > 10 µM; IC50 (JAK2; [2]): < 0.1 µM

With `COc1ccccc1-c1ccc2cnc(Nc3ccc4c(c3)N(C)CCC4)nn12` [Example 982, [7-(2-Methoxy-phenyl)-pyrrolo[2,1-f][1,2,4]triazin-2-yl]-(1-methyl-1,2,3,4-tetrahydro-quinolin-7-yl)-amine] as the compound, how does the IC50 (ALK; [1]) read?
Its IC50 is 1 to 10 µM.

And the IC50 (JAK2; [2])?
The IC50 was < 0.1 µM.

What does the source list for `COc1ccccc1-c1ccc2cnc(Nc3ccc4c(c3)CS(=O)(=O)C4)nn12` [Example 659, (2,2-Dioxo-2,3-dihydro-1H-2$1(6)-benzo[c]thiophen-5-yl)-[7-(2-methoxy-phenyl)-pyrrolo[2,1-f][1,2,4]triazin-2-yl]-amine]?
IC50 (ALK; [1]): < 0.1 µM; IC50 (JAK2; [2]): < 0.1 µM

With `CS(=O)(=O)c1ccc(-c2ccc3cnc(Nc4ccc(C5CCNCC5)cc4)nn23)cc1` [Example 1571, [7-(4-Methanesulfonyl-phenyl)-pyrrolo[2,1-f][1,2,4]triazin-2-yl]-(4-piperidin-4-yl-phenyl)-amine] as the compound, how does the IC50 (ALK; ALK Kinase Inhibition) read?
Its IC50 is 0.1 to 1 µM.

What about the IC50 (JAK2; JAK2 Kinase Inhibition) of the same compound?
Its IC50 is < 0.1 µM.

For `CN1CCCC1COc1cc(Nc2ncc3ccc(-c4cccc(S(C)(=O)=O)c4)n3n2)ccc1Cl` (centres unmarked) [Example 1013, [4-Chloro-3-(1-methyl-pyrrolidin-2-ylmethoxy)-phenyl]-[7-(3-methanesulfonyl-phenyl)-pyrrolo[2,1-f][1,2,4]triazin-2-yl]-amine], which IC50 (ALK; [1]) is on record?
Its IC50 is 1 to 10 µM.

What about the IC50 (JAK2; [2]) of the same compound?
The IC50 was < 0.1 µM.

Which IC50 (ALK; ALK Kinase Inhibition) does the source give for `CNC(=O)c1ccc(-c2ccc3cnc(Nc4cccc(N5CCOCC5)c4)nn23)cc1` [Example 194, N-Methyl-4-[2-(3-morpholin-4-yl-phenylamino)-pyrrolo[2,1-f][1,2,4]triazin-7-yl]-benzamide] here?
The IC50 was 0.1 to 1 µM.

What about the IC50 (JAK2; JAK2 Kinase Inhibition) of the same compound?
The IC50 was < 0.1 µM.

For `c1ccc(Nc2ncc3cc4ccccc4n3n2)cc1` [Example 270, Phenyl-[1,2,4]triazino[1,6-a]indol-2-yl-amine], which IC50 (ALK; ALK Kinase Inhibition) is on record?
Its IC50 is > 10 µM.

What about the IC50 (JAK2; JAK2 Kinase Inhibition) of the same compound?
The IC50 was 0.1 to 1 µM.

`COc1ccccc1-c1ccc2cnc(Nc3ccc(C4CCN(CC(N)=O)CC4)c(OC)c3)nn12` [Example 912, 2-(4-{2-Methoxy-4-[7-(2-methoxy-phenyl)-pyrrolo[2,1-f][1,2,4]triazin-2-ylamino]-phenyl}-piperidin-1-yl)-acetamide] was tested. Which IC50 (ALK; [1]) did it give?
Its IC50 is < 0.1 µM.

What about the IC50 (JAK2; [2]) of the same compound?
The IC50 was < 0.1 µM.

How did the IC50 (ALK; [1]) turn out when `COc1cc(-c2cccnc2)ccc1Nc1ncc2ccc(-c3ccccc3OC)n2n1` [Example 807, [7-(2-Methoxy-phenyl)-pyrrolo[2,1-f][1,2,4]triazin-2-yl]-(2-methoxy-4-pyridin-3-yl-phenyl)-amine] was run?
Its IC50 is 1 to 10 µM.

What about the IC50 (JAK2; [2]) of the same compound?
Its IC50 is > 10 µM.

With `CN(c1ccccc1-c1ccc2cnc(Nc3ccc(C4CCN(CCO)CC4)cc3)nn12)S(C)(=O)=O` [Example 669, N-[2-(2-{4-[1-(2-Hydroxy-ethyl)-piperidin-4-yl]-phenylamino}-pyrrolo[2,1-f][1,2,4]triazin-7-yl)-phenyl]-N-methyl-methanesulfonamide] as the compound, how does the IC50 (ALK; [1]) read?
Its IC50 is < 0.1 µM.

And the IC50 (JAK2; [2])?
Its IC50 is < 0.1 µM.

For `CN1CCN(c2ccc(Nc3ncc4ccc(Sc5ccccc5)n4n3)cc2)CC1` [Example 78, [4-(4-Methyl-piperazin-1-yl)-phenyl]-(7-phenylsulfanyl-pyrrolo[2,1-f][1,2,4]triazin-2-yl)-amine], which IC50 (ALK; ALK Kinase Inhibition) is on record?
The IC50 was < 0.1 µM.

And the IC50 (JAK2; JAK2 Kinase Inhibition)?
The IC50 was < 0.1 µM.

Which results are given for `COc1cc(N2CCN(C3CCOCC3)CC2)ccc1Nc1ncc2ccc(-c3ccccc3N(C)S(C)(=O)=O)n2n1` [Example 1471, N-[2-(2-{2-Methoxy-4-[4-(tetrahydro-pyran-4-yl)-piperazin-1-yl]-phenylamino}-pyrrolo[2,1-f][1,2,4]triazin-7-yl)-phenyl]-N-methyl-methanesulfonamide]?
IC50 (ALK; ALK Kinase Inhibition): < 0.1 µM; IC50 (JAK2; JAK2 Kinase Inhibition): 0.1 to 1 µM

Which results are given for `COc1ccccc1-c1ccc2cnc(Nc3cc4c(cc3F)CCC(=O)N4)nn12` [Example 922, 6-Fluoro-7-[7-(2-methoxy-phenyl)-pyrrolo[2,1-f][1,2,4]triazin-2-ylamino]-3,4-dihydro-1H-quinolin-2-one]?
IC50 (ALK; [1]): 1 to 10 µM; IC50 (JAK2; [2]): < 0.1 µM

For `COc1cc(N2CCC(N3CC[C@H](O)C3)CC2)ccc1Nc1ncc2ccc(-c3ccccc3OC)n2n1` [Example 483, (S)-1-(1-{3-Methoxy-4-[7-(2-methoxy-phenyl)-pyrrolo[2,1-f][1,2,4]triazin-2-ylamino]-phenyl}-piperidin-4-yl)-pyrrolidin-3-ol], which IC50 (ALK; [1]) is on record?
Its IC50 is < 0.1 µM.

And the IC50 (JAK2; [2])?
Its IC50 is 0.1 to 1 µM.

With `CN1CCN(c2cccc(Nc3ncc4ccc(-c5cnn(S(C)(=O)=O)c5)n4n3)c2)CC1` [Example 950, [7-(1-Methanesulfonyl-1H-pyrazol-4-yl)-pyrrolo[2,1-f][1,2,4]triazin-2-yl]-[3-(4-methyl-piperazin-1-yl)-phenyl]-amine] as the compound, how does the IC50 (ALK; [1]) read?
Its IC50 is 0.1 to 1 µM.

What about the IC50 (JAK2; [2]) of the same compound?
The IC50 was < 0.1 µM.

For `CCc1nc2ccc(Nc3ncc4ccc(-c5cccc(S(=O)(=O)NC(C)(C)C)c5)n4n3)cc2[nH]1` [Example 1328, N-tert-Butyl-3-[2-(2-ethyl-3H-benzimidazol-5-ylamino)-pyrrolo[2,1-f][1,2,4]triazin-7-yl]-benzenesulfonamide], which IC50 (ALK; [1]) is on record?
Its IC50 is 0.1 to 1 µM.

And the IC50 (JAK2; [2])?
Its IC50 is < 0.1 µM.
